Assay results reported in patent US20160303184A1, “VANCOMYCIN-SUGAR CONJUGATES AND USES THEREOF” (JAWAHARLAL NEHRU CENTRE FOR ADVANCED SCIENTIFIC RESEARCH …, priority 2013, published 2016).

Test system: MR-VISA
Experiment: In-vivo antibacterial activity, neutropenic mouse thigh infection
Set-up: species or system Staphylococcus aureus
Details: 12 mg/kg i.v., neutropenic mice, 24 h
Procedure: About six-week-old, female CD-1 mice (weight, ˜19-24 g) were used for the experiments. The mice were rendered neutropenic (˜100 […]) by injecting two doses of cyclophosphamide intraperitoneally 4 days (150 mg/kg) and 1 day (100 mg/kg) before the infection experiment. 50 μl of ˜10^7 CFU/ml concentration of the bacterial inoculum (MR-VISA) was injected into the thigh. One hour after inoculation, animals were treated intravenously with saline, vancomycin, linezolid and compound 7 at 12 mg/kg and 24 mg/kg of body weight (24 h total dosage). At 24 h post first treatment, cohorts of animals were euthanized (using ether) and the thighs were collected aseptically. The thigh was weighed (0.7 g-0.9 g) and placed into 10 ml of sterile saline and homogenized. The dilutions of the homogenate were plated onto agar plates, which were incubated overnight at 37° C. The bacterial titer was expressed as log10 CFU/g of thigh weight.

## CCCCCCCCCCN[C@]1(C)C[C@H](OC2C(O)[C@@H](O)C(CO)O[C@@H]2Oc2c3cc4cc2Oc2ccc(cc2Cl)[C@@H](O)[C@@H](NC(=O)[C@@H](CC(C)C)NC)C(=O)N[C@@H](CC(N)=O)C(=O)N[C@H]4C(=O)N[C@H]2C(=O)N[C@H](C(=O)N[C@H](C(=O)NCCCNC(=O)[C@H](O)[C@@H](O)[C@H](OC4OC(CO)C(O)C(O)[C@H]4O)[C@H](O)CO)c4cc(O)cc(O)c4-c4cc2ccc4O)[C@H](O)c2ccc(c(Cl)c2)O3)OC(C)[C@@H]1O (stereo partly shown) [Compound 7]
  reduction in bacterial count from the initial titer: ~3.0 log10 CFU/g
